According to US6639107B1, “Cyclopentyl sulfonamide derivatives” (Eli Lilly and Company, priority 1999, dated 2003):

Compound `CC(C)S(=O)(=O)N[C@H]1CCC[C@@H]1c1ccc(Br)cc1` (racemic) [Example 48, (+,−) Trans Propane-2-sulfonic Acid [2-(4-bromo-phenyl)-cyclopentyl]-amide] has a melting point of 128 to 130 °C.
